Measured values from ChEMBL document CHEMBL1949614, “Advent of Imidazo[1,2-a]pyridine-3-carboxamides with Potent Multi- and Extended Drug Resistant Antituberculosis Activity” (ACS Med Chem Lett, 2011).
≈ marks a conversion by molar mass, not a printed value.

Legend:
Assay type in all cases: functional
[1] = system: Mycobacterium tuberculosis; test: Antitubercular activity against extensively drug-resistant isoniazid, rifampicin, ethambutol, streptomycin, p-aminosalicylic acid, ofloxacin-resistant Mycobacterium tuberculosis clinical isolate by microbroth dilution assay
[2] = system: Mycobacterium tuberculosis; test: Antitubercular activity against multidrug-resistant isoniazid, rifampicin, ethambutol, streptomycin, p-aminosalicylic acid-resistant Mycobacterium tuberculosis by microbroth dilution assay
[3] = system: Mycobacterium tuberculosis; test: Antitubercular activity against multidrug-resistant isoniazid, rifampicin, ethambutol, rifabutin-resistant Mycobacterium tuberculosis clinical isolate by microbroth dilution assay
[4] = system: Mycobacterium tuberculosis; test: Antitubercular activity against extensively drug-resistant isoniazid, rifampicin, ethambutol, kanamycin, p-aminosalicylic acid, ethionamide/thioacetazone, ofloxacin-resistant Mycobacterium tuberculosis clinical isolate by microbroth dilution assay
[5] = system: Mycobacterium tuberculosis; test: Antitubercular activity against extensively drug-resistant isoniazid, rifampicin, ethambutol, streptomycin, cycloserine, p-aminosalicylic acid, ethionamide/thioacetazone, ofloxacin-resistant Mycobacterium tuberculosis clinical isolate by microbroth dilution assay
[6] = system: Mycobacterium tuberculosis; test: Antitubercular activity against multidrug-resistant isoniazid, rifampicin, ethambutol, pyrazinamide, streptomycin, kanamycin, p-aminosalicylic acid, ethionamide/thioacetazone-resistant Mycobacterium tuberculosis clinical isolate by microbroth dilution assay
[7] = system: Mycobacterium tuberculosis; test: Antitubercular activity against multidrug-resistant isoniazid, rifampicin, ethambutol, pyrazinamide, rifabutin, thioacetazone/ethionamide-resistant Mycobacterium tuberculosis clinical isolate by microbroth dilution assay
[8] = system: Mycobacterium tuberculosis; test: Antitubercular activity against multidrug-resistant isoniazid, rifampicin, ethambutol, pyrazinamide, streptomycin, p-aminosalicylic acid-resistant Mycobacterium tuberculosis clinical isolate by microbroth dilution assay
[9] = system: Mycobacterium tuberculosis; test: Antitubercular activity against multidrug-resistant isoniazid, rifampicin, ethambutol, kanamycin, p-aminosalicylic acid-resistant Mycobacterium tuberculosis clinical isolate by microbroth dilution assay
[10] = system: Mycobacterium tuberculosis; test: Antitubercular activity against multidrug-resistant isoniazid, cycloserine, p-aminosalicylic acid, ethionamide/thioacetazone-resistant Mycobacterium tuberculosis clinical isolate by microbroth dilution assay

Structure (SMILES)	MIC90 [1]	MIC90 [2]	MIC90 [3]	MIC90 [4]	MIC90 [5]	MIC90 [6]	MIC90 [7]	MIC90 [8]	MIC90 [9]	MIC90 [10]
Cc1ccn2c(C(=O)NCc3ccccc3)c(C)nc2c1	0.14 µM (≈ 0.0391 µg/mL)	2.24 µM (≈ 0.626 µg/mL)	0.14 µM (≈ 0.0391 µg/mL)	0.07 µM (≈ 0.0196 µg/mL)	0.07 µM (≈ 0.0196 µg/mL)	0.07 µM (≈ 0.0196 µg/mL)	0.14 µM (≈ 0.0391 µg/mL)	1.12 µM (≈ 0.313 µg/mL)	0.28 µM (≈ 0.0782 µg/mL)	1.12 µM (≈ 0.313 µg/mL)
COc1cccc(CNC(=O)c2c(C)nc3cc(C)ccn23)c1	0.02 µM (≈ 0.00619 µg/mL)	1.01 µM (≈ 0.312 µg/mL)	≤ 0.03 µM	0.02 µM (≈ 0.00619 µg/mL)	0.03 µM (≈ 0.00928 µg/mL)	≤ 0.03 µM	0.06 µM (≈ 0.0186 µg/mL)	0.06 µM (≈ 0.0186 µg/mL)	0.13 µM (≈ 0.0402 µg/mL)	0.13 µM (≈ 0.0402 µg/mL)
Cc1ccn2c(C(=O)NCc3cccc(F)c3)c(C)nc2c1	0.03 µM (≈ 0.00892 µg/mL)	0.26 µM (≈ 0.0773 µg/mL)	0.13 µM (≈ 0.0387 µg/mL)	0.03 µM (≈ 0.00892 µg/mL)	0.07 µM (≈ 0.0208 µg/mL)	0.06 µM (≈ 0.0178 µg/mL)	0.06 µM (≈ 0.0178 µg/mL)	0.06 µM (≈ 0.0178 µg/mL)	0.26 µM (≈ 0.0773 µg/mL)	0.26 µM (≈ 0.0773 µg/mL)
